# Measured values reported in patent publication US8221997B2, “Microorganism and method for producing carotenoid using the same” (Tosoh Corporation, priority 2005, dated 2012).
# Test system: Paracoccus sp. strain TSN18E7
# Assay: Evaluation of growth ability against metabolic analogue β-ionone (colony formation on plate culture medium)
# Format: cell-based
# Conditions: plate culture medium of Table 2 with β-ionone in DMSO at final 0.01, 1, 2, 5 and 10 mM; 5 days at 25° C.; colonies visually counted
# Method: bacterium Paracoccus sp. strain TSN18E7 was inoculated in 5 mL of liquid medium shown in Table 1, and cultured for one (1) day at 25° C. under shaking and 150 rpm. The culture solution was diluted in a culture medium shown in Table 1, and spread on a plate culture medium having a composition shown in Table 2 supplemented with β-ionone (Aldrich) dissolved in dimethylsulfoxide (DMSO). β-ionone was supplemented at final concentrations of 0.01, 1, 2, 5 and 10 mM. Then the plate culture medium on which strain TSN18E7 was spread was cultured for 5 days at 25° C. Appearing colonies were visually counted and evaluated for growth ability of strain TSN18E7 for each concentration of β-ionone. The strain TSN18E7 inhibited growth in the presence of β-ionone of 1 mM or more, and formation of colony was not observed. We concluded that for separation of β-ionone resistant strain, suitable β-ionone concentration in culture is 1 mM in final concentration.
smiles,measurement,value
CC(=O)/C=C/C1=C(C)CCCC1(C)C [β-ionone],β-ionone concentration at which growth of the strain is inhibited and formation of colony is not observed,≥ 1 mM
